Legend:
[1] = tested on: virus H1N1 A/Weiss/43; experiment: microbe, parasite or virus in culture; type: cell-based; conditions: Influenza A virus, H1N1, 120 h; MDCK cells, CPE, 5 days, CCK-8; read-out: EC50, inhibitory activity against influenza virus (A/Weiss/43(H1N1))
[2] = in vivo; conditions: SD, rat
Procedure: The compounds disclosed herein were administered in form of a saline solution containing 5% DMSO, 5% Kolliphor HS 15 and 90% Saline. For intravenous administration (iv), the animals were administered with a dose of 1 mg/kg, and blood samples (0.3 mL) were collected at the time points of 0.083, 0.25, 0.5, 1.0, 2.0, 5.0, 7.0 and 24 h after drug administration, then each blood sample was processed to separate plasma by centrifugation at 3000 rpm or 4000 rpm for 10 minutes. For oral administration (po), the animals were administered with a dose of 5 mg/kg, and blood samples (0.3 mL) were collected at the time points of 0.25, 0.5, 1.0, 2.0, 5.0, 7.0 and 24 h after drug administration, then each blood sample was processed to separate plasma by centrifugation at 3000 rpm or 4000 rpm for 10 minutes. Plasma samples were collected and stored at −20° C. or −70° C. until LC/MS/MS analysis.

[3] = tested on: Influenza B virus-B/Lee/40; experiment: microbe, parasite or virus in culture; type: cell-based; conditions: MDCK, 72 h, read-out: EC50, inhibitory activity against influenza virus (Influenza B virus-B/Lee/40)

| SMILES | EC50 [1] | AUC(0-inf) ([2]; iv, 1 mg/kg) | AUC(0-t) ([2]; iv, 1 mg/kg) | clearance ([2]; iv, 1 mg/kg) | AUC(0-inf) ([2]; po, 5 mg/kg) | AUC(0-t) ([2]; po, 5 mg/kg) | EC50 [3] |
| --- | --- | --- | --- | --- | --- | --- | --- |
| O=C(O)[C@H]1C2CCC(CC2)[C@@H]1Nc1cc(-c2cc3ccccc3s2)nc(-c2c[nH]c3ncc(Cl)nc23)n1 [Example 15, (2S,3S)-3-((6-(benzo[b]thiophen-2-yl)-2-(2-chloro-5H-pyrrolo[2,3-b]pyrazin-7-yl)pyrimidin-4-yl)amino)bicyclo[2.2.2]octane-2-carboxylic Acid] | 0.76 nM |  |  |  |  |  |  |
| CC(C)(C)[C@@H](CC(=O)O)Nc1nc(-c2c[nH]c3ncc(Cl)nc23)nc(-c2ccco2)c1F [Example 8, (R)-3-((2-(2-chloro-5H-pyrrolo[2,3-b]pyrazin-7-yl)-5-fluoro-6-(furan-2-yl)pyrimidin-4-yl)amino)-4,4-dimethylpentanoic Acid] | 0.394 nM | 1550 ng·h/mL | 1540 ng·h/mL | 187 mL/min/kg | 5440 ng·h/mL | 5420 ng·h/mL |  |
| O=C(O)[C@H]1C2CCC(CC2)[C@@H]1Nc1nc(-c2c[nH]c3ncc(Cl)nc23)nc(-c2ccc(F)s2)c1F [Example 62, (2S,3S)-3-((2-(2-chloro-5H-pyrrolo[2,3-b]pyrazin-7-yl)-5-fluoro-6-(5-fluorothiophen-2-yl)pyrimidin-4-yl)amino)bicyclo[2.2.2]octane-2-carboxylic Acid] | 0.011 nM | 5510 ng·h/mL | 5390 ng·h/mL | 50.7 mL/min/kg | 25000 ng·h/mL | 24400 ng·h/mL |  |
| Cc1ccc(-c2nc(-c3c[nH]c4ncc(Cl)nc34)nc(N[C@H]3C4CCC(CC4)[C@@H]3C(=O)O)c2F)s1 [Example 33, (2S,3S)-3-((2-(2-chloro-5H-pyrrolo[2,3-b]pyrazin-7-yl)-5-fluoro-6-(5-methylthiophen-2-yl)pyrimidin-4-yl)amino)bicyclo[2.2.2]octane-2-carboxylic Acid] | 0.01 nM |  |  |  |  |  |  |
| O=C(O)C1C2CCC(CC2)C1Nc1cc(-c2ccco2)nc(-c2c[nH]c3ncc(Cl)nc23)n1 (racemic) [Example 1, (+/−)-trans-3-((2-(2-chloro-5H-pyrrolo[2,3-b]pyrazin-7-yl)-6-(furan-2-yl)pyrimidin-4-yl)amino)bicyclo[2.2.2]octane-2-carboxylic Acid] | 3.89 nM |  |  |  |  |  |  |
| CC(C)Cn1ccc2c(N[C@H]3C4CCC(CC4)[C@@H]3C(=O)O)nc(-c3c[nH]c4ncc(Cl)nc34)nc21 [Example 66, (2S,3S)-3-((2-(2-chloro-5H-pyrrolo[2,3-b]pyrazin-7-yl)-7-isobutyl-7H-pyrrolo[2,3-d]pyrimidin-4-yl)amino)bicyclo[2.2.2]octane-2-carboxylic Acid] | 0.274 nM | 3480 ng·h/mL | 3470 ng·h/mL | 82.5 mL/min/kg | 12600 ng·h/mL | 12500 ng·h/mL |  |
| O=C(O)[C@H]1C2CCC(CC2)[C@@H]1Nc1nc(-c2c[nH]c3ncc(Cl)nc23)nc(-c2ccc(Cl)s2)c1F [Example 29, (2S,3S)-3-((2-(2-chloro-5H-pyrrolo[2,3-b]pyrazin-7-yl)-6-(5-chlorothiophen-2-yl)-5-fluoropyrimidin-4-yl)amino)bicyclo[2.2.2]octane-2-carboxylic Acid] | 0.013 nM | 4980 ng·h/mL | 4830 ng·h/mL | 56.3 mL/min/kg | 23800 ng·h/mL | 23700 ng·h/mL |  |
| O=C(O)[C@H]1C2CCC(CC2)[C@@H]1Nc1nc(-c2c[nH]c3ncc(Cl)nc23)nc(-c2ccc(C3CC3)s2)c1F [Example 27, (2S,3S)-3-((2-(2-chloro-5H-pyrrolo[2,3-b]pyrazin-7-yl)-6-(5-cyclopropylthiophen-2-yl)-5-fluoropyrimidin-4-yl)amino)bicyclo[2.2.2]octane-2-carboxylic Acid] | 0.024 nM | 1960 ng·h/mL | 1960 ng·h/mL | 144 mL/min/kg | 7250 ng·h/mL | 7170 ng·h/mL |  |
| O=C(O)[C@H]1C2CCC(CC2)[C@@H]1Nc1cc(N2CCN(c3ccccc3)CC2)nc(-c2c[nH]c3ncc(Cl)nc23)n1 [Example 39, (2S,3S)-3-((2-(2-chloro-5H-pyrrolo[2,3-b]pyrazin-7-yl)-6-(4-phenylpiperazin-1-yl)pyrimidin-4-yl)amino)bicyclo[2.2.2]octane-2-carboxylic Acid] | 1.22 nM |  |  |  |  |  |  |
| O=C(O)C1C2CCC(CC2)C1Nc1nc(-c2c[nH]c3ncc(F)cc23)ncc1F (stereo not shown) [JNJ-872, reference compound] |  |  |  |  |  |  | > 50000 nM |
| Cn1cc(-c2nc(-c3c[nH]c4ncc(Cl)nc34)nc(NC3C4CCC(CC4)C3C(=O)O)c2F)cn1 (racemic) [Example 5, (+/−)-trans-3-((2-(2-chloro-5H-pyrrolo[2,3-b]pyrazin-7-yl)-5-fluoro-6-(1-methyl-1H-pyrazol-4-yl)pyrimidin-4-yl)amino)bicyclo[2.2.2]octane-2-carboxylic Acid] | 3.52 nM |  |  |  |  |  |  |
| O=C(O)[C@H]1C2CCC(CC2)[C@@H]1Nc1nc(-c2c[nH]c3ncc(Cl)nc23)ncc1F [Compound A, reference compound] | 33.2 nM | 894 ng·h/mL | 894 ng·h/mL | 312 mL/min/kg | 2910 ng·h/mL | 2880 ng·h/mL |  |
| O=C(O)[C@H]1C2CCC(CC2)[C@@H]1Nc1nc(-c2c[nH]c3nc(Cl)cnc23)nc(-c2cccs2)c1F [Example 53, (2S,3S)-3-((2-(3-chloro-5H-pyrrolo[2,3-b]pyrazin-7-yl)-5-fluoro-6-(thiophen-2-yl)pyrimidin-4-yl)amino)bicyclo[2.2.2]octane-2-carboxylic Acid] |  | 3740 ng·h/mL | 3670 ng·h/mL | 74.2 mL/min/kg | 18000 ng·h/mL | 17700 ng·h/mL |  |
| O=C(O)C1C2CCC(CC2)C1Nc1nc(-c2c[nH]c3ncc(Cl)nc23)nc(-c2cc3ccccc3o2)c1F (racemic) [Example 6, (+/−)-trans-3-((6-(benzofuran-2-yl)-2-(2-chloro-5H-pyrrolo[2,3-b]pyrazin-7-yl)-5-fluoropyrimidin-4-yl)amino)bicyclo[2.2.2]octane-2-carboxylic Acid] | 0.398 nM |  |  |  |  |  |  |
| O=C(O)[C@H]1C2CCC(CC2)[C@@H]1Nc1nc(-c2c[nH]c3ncc(Cl)nc23)nc2c1ccn2C(CF)CF [Example 65, (2S,3S)-3-((2-(2-chloro-5H-pyrrolo[2,3-b]pyrazin-7-yl)-7-(1,3-difluoropropan-2-yl)-7H-pyrrolo[2,3-d]pyrimidin-4-yl)amino)bicyclo[2.2.2]octane-2-carboxylic Acid] |  | 2390 ng·h/mL | 2370 ng·h/mL | 121 mL/min/kg | 6170 ng·h/mL | 6150 ng·h/mL |  |
| O=C(O)C1C2CCC(CC2)C1Nc1nc(-c2c[nH]c3ncc(Cl)nc23)nc(-c2ccccc2)c1F (racemic) [Example 4, (+/−)-trans-3-((2-(2-chloro-5H-pyrrolo[2,3-b]pyrazin-7-yl)-5-fluoro-6-phenylpyrimidin-4-yl)amino)bicyclo[2.2.2]octane-2-carboxylic Acid] | 0.116 nM |  |  |  |  |  |  |
| O=C(O)[C@H]1C2CCC(CC2)[C@@H]1Nc1nc(-c2c[nH]c3ncc(Cl)nc23)nc(-c2nccs2)c1F [Example 49, (2S,3S)-3-((2-(2-chloro-5H-pyrrolo[2,3-b]pyrazin-7-yl)-5-fluoro-6-(thiazol-2-yl)pyrimidin-4-yl)amino)bicyclo[2.2.2]octane-2-carboxylic Acid] | 0.521 nM | 3950 ng·h/mL | 3940 ng·h/mL | 71.5 mL/min/kg | 3550 ng·h/mL | 3500 ng·h/mL |  |
| O=C(O)[C@H]1C2CCC(CC2)[C@@H]1Nc1cc(-n2cccc2)nc(-c2c[nH]c3ncc(Cl)nc23)n1 [Example 55, (2S,3S)-3-((2-(2-chloro-5H-pyrrolo[2,3-b]pyrazin-7-yl)-6-(1H-pyrrol-1-yl)pyrimidin-4-yl)amino)bicyclo[2.2.2]octane-2-carboxylic Acid] | 0.68 nM |  |  |  |  |  |  |
| O=C(O)C1C2CCC(CC2)C1Nc1nc(-c2c[nH]c3ncc(Cl)nc23)nc(-c2ccco2)c1F (racemic) [Example 3, (+/−)-trans-3-((2-(2-chloro-5H-pyrrolo[2,3-b]pyrazin-7-yl)-5-fluoro-6-(furan-2-yl)pyrimidin-4-yl)amino)bicyclo[2.2.2]octane-2-carboxylic Acid] | 0.672 nM |  |  |  |  |  |  |
| O=C(O)[C@H]1C2CCC(CC2)[C@@H]1Nc1nc(-c2c[nH]c3ncc(Cl)nc23)nc(-c2cc3ccccc3s2)c1F [Example 7a, (2S,3S)-3-((6-(benzo[b]thiophen-2-yl)-2-(2-chloro-5H-pyrrolo[2,3-b]pyrazin-7-yl)-5-fluoropyrimidin-4-yl)amino)bicyclo[2.2.2]octane-2-carboxylic Acid] |  | 3260 ng·h/mL | 3220 ng·h/mL | 85.2 mL/min/kg | 9950 ng·h/mL | 9840 ng·h/mL |  |
| O=C(O)[C@H]1C2CCC(CC2)[C@@H]1Nc1nc(-c2c[nH]c3ncc(Cl)nc23)nc(-c2cccs2)c1F [Example 13, (2S,3S)-3-((2-(2-chloro-5H-pyrrolo[2,3-b]pyrazin-7-yl)-5-fluoro-6-(thiophen-2-yl)pyrimidin-4-yl)amino)bicyclo[2.2.2]octane-2-carboxylic Acid] | 0.017 nM | 10100 ng·h/mL | 9900 ng·h/mL | 27.8 mL/min/kg | 29000 ng·h/mL | 27400 ng·h/mL |  |
| N#Cc1ccc(-c2nc(-c3c[nH]c4ncc(Cl)nc34)nc(N[C@H]3C4CCC(CC4)[C@@H]3C(=O)O)c2F)s1 [Example 63, (2S,3S)-3-((2-(2-chloro-5H-pyrrolo[2,3-b]pyrazin-7-yl)-6-(5-cyanothiophen-2-yl)-5-fluoropyrimidin-4-yl)amino)bicyclo[2.2.2]octane-2-carboxylic acid] | 0.079 nM |  |  |  |  |  |  |
| O=C(O)[C@H]1C2CCC(CC2)[C@@H]1Nc1nc(-c2c[nH]c3nccnc23)nc(-c2cccs2)c1F [Example 64, (2S,3S)-3-((5-fluoro-2-(5H-pyrrolo[2,3-b]pyrazin-7-yl)-6-(thiophen-2-yl)pyrimidin-4-yl)amino)bicyclo[2.2.2]octane-2-carboxylic Acid] | 0.887 nM |  |  |  |  |  |  |
| O=C(O)C1C2CCC(CC2)C1Nc1cc(-c2ccccc2)nc(-c2c[nH]c3ncc(Cl)nc23)n1 (racemic) [Example 12, (+/−)-trans-3-((2-(2-chloro-5H-pyrrolo[2,3-b]pyrazin-7-yl)-6-phenylpyrimidin-4-yl)amino)bicyclo[2.2.2]octane-2-carboxylic Acid] | 2.54 nM |  |  |  |  |  |  |

From patent US10987354B2, “Inhibitors of influenza virus replication and uses thereof” (SUNSHINE LAKE PHARMA CO., LTD., priority 2016, dated 2021)
